# Values quoted from earlier work, collected in patent US20200281963A1, “HYDROGEN MOLECULE-CONTAINING PROPHYLACTIC OR THERAPEUTIC AGENT FOR OXIDATIVE DAMAGE IN INTRAOCULAR SURGERIES” (priority 2016, published 2020).
smiles,measurement,setting,value
[HH] [hydrogen molecules],amount of hydrogen molecules that can be dissolved,in 1 L of water at 25° C. at 1 atm,17.5 mL
same,amount of hydrogen molecules that can be dissolved (concentration),water at 25° C. at 1 atm,approximately 0.8 mM
